Experimental data published in ChEMBL document CHEMBL1159248, “Tyrosinase inhibitors from Bolivian medicinal plants” (J Nat Prod, 1995).
Calls of active or inactive are those of the source. No cut-off for these calls is given here.

How the values were obtained:
[1] = biological target: T1, Tyrosinase (Agaricus bisporus) (UniProt O42713); assay: Competitive inhibition of mushroom tyrosinase assessed as L-3,4-dihydroxyphenylalanine oxidation
T1 sequence (whole entry): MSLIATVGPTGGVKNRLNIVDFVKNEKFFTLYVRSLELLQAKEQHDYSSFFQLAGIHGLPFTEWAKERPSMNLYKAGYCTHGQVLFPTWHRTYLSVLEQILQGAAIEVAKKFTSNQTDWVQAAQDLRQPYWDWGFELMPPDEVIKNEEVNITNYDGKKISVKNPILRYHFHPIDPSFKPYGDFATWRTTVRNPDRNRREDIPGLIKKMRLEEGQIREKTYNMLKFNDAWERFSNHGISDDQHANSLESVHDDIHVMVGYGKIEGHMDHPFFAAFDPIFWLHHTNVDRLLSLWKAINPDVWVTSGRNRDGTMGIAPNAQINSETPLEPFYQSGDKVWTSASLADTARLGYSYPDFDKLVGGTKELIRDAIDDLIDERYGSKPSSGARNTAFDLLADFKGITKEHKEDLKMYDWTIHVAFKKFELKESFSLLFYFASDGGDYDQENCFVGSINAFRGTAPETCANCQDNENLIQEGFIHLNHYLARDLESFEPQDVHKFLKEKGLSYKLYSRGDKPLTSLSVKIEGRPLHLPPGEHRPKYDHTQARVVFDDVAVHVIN

[2] = biological target: T1, Tyrosinase (Agaricus bisporus); assay: Inhibition of mushroom tyrosinase assessed as L-3,4-dihydroxyphenylalanine oxidation
[3] = biological target: T1, Tyrosinase (Agaricus bisporus); assay: Inhibition of mushroom tyrosinase assessed as L-3,4-dihydroxyphenylalanine at 100 ug/ml

In the case of `O=C(O)c1ccc(O)cc1`, the Activity [1] is reported as “Active” and the ID50 [2] is reported as 1900 µM.

For `O=C(/C=C/c1ccc(O)cc1)OC[C@H]1O[C@@H](Oc2cc(O)c3c(=O)c(O)c(-c4ccc(O)cc4)oc3c2)[C@H](O)[C@@H](O)[C@@H]1O`, the ID50 [2] was 390 µM.

`O=c1cc(-c2ccc(O[C@@H]3O[C@H](CO)[C@@H](O)[C@H](O)[C@H]3O)c(O)c2)oc2cc(O)cc(O)c12` showed an inhibition [3] of 100%.

For `O=C(O[C@H]1O[C@@H]2COC(=O)c3cc(O)c(O)c(O)c3-c3c(cc(O)c(O)c3O)C(=O)O[C@H]2[C@@H]2OC(=O)c3cc(O)c(O)c(O)c3-c3c(cc(O)c(O)c3O)C(=O)O[C@@H]12)c1cc(O)c(O)c(Oc2c(C(=O)O[C@H]3O[C@@H]4COC(=O)c5cc(O)c(O)c(O)c5-c5c(cc(O)c(O)c5O)C(=O)O[C@H]4[C@@H]4OC(=O)c5cc(O)c(O)c(O)c5-c5c(cc(O)c(O)c5O)C(=O)O[C@@H]34)cc(O)c(O)c2O)c1`, the ID50 [2] was 61 µM.

With `COc1cc(/C=C/C(=O)OC[C@H]2O[C@@H](Oc3cc(O)c4c(=O)c(O)c(-c5ccc(O)cc5)oc4c3)[C@H](O)[C@@H](O)[C@@H]2O)ccc1O` the ID50 [2] was 440 µM.

For `O=c1c(O)c(-c2ccc(O)c(O)c2)oc2cc(O)cc(O)c12`, the Activity [1] was “Active” and the ID50 [2] was 70 µM.
